Values joined by “and” are separate entries in the source; they are usually repeats but may differ in a detail not shown here. Identical values can stand only once.
What was measured:
αS PMCA samples = target: T1, αS PMCA samples (Homo sapiens, UniProt P37840); assay: Proteinase K digestion of PMCA samples; assay type: biochemical; settings: cycle three to cycle five, in the presence of NS132
T1 construct: made in house; host or cells: E. coli BL21(DE3)
Experimental: A Protease K (PK) solution at 50 μg/mL (IBI Scientific, Dubuque, IA) in digestion buffer (10 mM Tris, pH 8.0, 2 mM CaCl2) was diluted (0.1 eq.) into 30 μL of PMCA solution (with or without NS132) and incubated for 30 min at 37 °C. Subsequently, the samples were diluted (1:1, v/v) in SDS Protein Gel Loading Dye 2× (Quality Biological, Gaithersburg, MD) and loaded on Mini-PROTEAN TGX Stain-Free Protein Gel (BioRad, Hercules, CA). The gel was stained using the Fairbanks staining method and imaged using ChemiDoc MP (BioRad, Hercules, CA).

[1] = target: T2, αS fibers-catalyzed aggregation of αS (Homo sapiens, UniProt P37840); assay: αS fibers-catalyzed aggregation of αS, ThT kinetic assay; assay type: biochemical
T2 construct: made in house; host or cells: E. coli BL21(DE3)

[2] = system: HEK cells expressing αSA53T-YFP; assay: MTT reduction assay of HEK cells treated with αS aggregated with or without ligand; assay type: cell-based, human
Experimental: The aggregation of endogenous monomeric αS-A53T-YFP into fibers can be detected by the intracellular fluorescent puncta (Fig. 3a, + αS). A solution of 100 μM αS was aggregated in the absence and presence of NS132 at an equimolar ratio for four days. The resulting solutions of αS fibers (5 μM in monomeric αS, ±NS132) were introduced to HEK cells in the presence of Lipofectamine 3000 for 24 h. In contrast to the control (no fibers), we observed a significant number of fluorescent inclusions in the presence of αS fibers (Fig. 3a, white arrows, +αS), which was a consequence of the templating of endogenous monomeric αS-A53T-YFP by the exogenously added αS fibers. […] Moreover, we observed the colocalization of an adaptor protein, p62, in the aggresome of αS inclusions in HEK cells (Fig. 3b, +αS, red),[51]–[54]. […] We also quantified the inclusions (αS-A53T-YFP) using a ProteoStat dye-based high throughput 96-well plate reader-based assay recently developed in our lab[24]. […] The viability of HEK cells was measured using the (3-(4,5-dimethylthiazol-2-yl)-2,5-diphenyltetrazolium bromide) (MTT) reduction based assay.
This assay was performed based on a previous protocol with slight modifications. […] The crystals were dissolved with gentle shaking of the plate, and subsequently, the absorbance was measured at 570 nm using an Infinite M200 Pro Plate Reader (Tecan, Grŏdig, Austria). […]

[3] = system: HEK293 cells stably expressing αS-A53T-YFP; assay: HEK cells transfected with αS aggregated with or without ligand: inclusions (ProteoStat dye, confocal); assay type: cell-based, human
Experimental: The aggregation of endogenous monomeric αS-A53T-YFP into fibers can be detected by the intracellular fluorescent puncta (Fig. 3a, + αS). A solution of 100 μM αS was aggregated in the absence and presence of NS132 at an equimolar ratio for four days. The resulting solutions of αS fibers (5 μM in monomeric αS, ±NS132) were introduced to HEK cells in the presence of Lipofectamine 3000 for 24 h. In contrast to the control (no fibers), we observed a significant number of fluorescent inclusions in the presence of αS fibers (Fig. 3a, white arrows, +αS), which was a consequence of the templating of endogenous monomeric αS-A53T-YFP by the exogenously added αS fibers. […] Moreover, we observed the colocalization of an adaptor protein, p62, in the aggresome of αS inclusions in HEK cells (Fig. 3b, +αS, red),[51]–[54]. […] The autophagy machinery regulates many vital cellular processes and its impairment due to αS aggregation can lead to PD and other neurodegenerative disorders[51]–[54]. […] We also quantified the inclusions (αS-A53T-YFP) using a ProteoStat dye-based high throughput 96-well plate reader-based assay recently developed in our lab[24]. The ProteoStat dye-based intensity of HEK cells treated with αS fibers was ~4-5 fold higher than the control (no fibers) (Fig. 3c, +αS, black). […] Therefore, we used HEK cells to test the cytotoxicity of the aggregated solution of αS in the absence and presence of NS132 (Fig. 3d). The viability of HEK cells was measured using the (3-(4,5-dimethylthiazol-2-yl)-2,5-diphenyltetrazolium bromide) (MTT) reduction based assay.
The Lipofectamine solution was made fresh for each transfection to avoid possible denaturation of reagents in a stored stock solution. For each transfection protocol, the total volume of lipofectamine solution required is equivalent to 30% of the total volume of αS/lipofectamine solution needed. […]
This assay was performed based on a previous protocol with slight modifications. […] The resulting cell pellets were then homogenized, transferred into an autoclaved 1.7 mL microcentrifuge tube, and counted to normalize the data. […]

Cc1ccc(NC(=O)c2ccc(NC(=O)c3ccc([N+](=O)[O-])c(NCCc4c[nH]c5ccccc45)n3)c(NCC3CCCCC3)n2)c(OCC(=O)O)n1 [NS132]
proteinase K (PK) resistance of PMCA samples, in words (αS PMCA samples): completely degraded | ThT fluorescence intensity, Average ([1]; 100 µM αS + αS fibers (20% monomer conc.) + equimolar ligand, time 0 hr): 181.667 | effect on αS fibers-catalyzed aggregation of αS, in words ([1]; 100 μM αS, preformed αS fibers 20%, equimolar ligand): wholly suppressed | ThT fluorescence intensity, Average ([1]; seeded, equimolar ligand, time 3 hr): 168 | ThT fluorescence intensity, Average ([1]; seeded, equimolar ligand, time 6 hr): 160.333 | ThT fluorescence intensity, Average ([1]; seeded, equimolar ligand, time 9 hr): 164 | ThT fluorescence intensity, Average ([1]; seeded, equimolar ligand, time 12 hr): 200.667 | ThT fluorescence intensity, Average ([1]; seeded, equimolar ligand, time 24 hr): 255 | ThT fluorescence intensity, Average ([1]; seeded, equimolar ligand, time 36 hr): 243.333 | ThT fluorescence intensity, Average ([1]; seeded, equimolar ligand, time 48 hr): 299.333 | relative viability of HEK cells, individual trials ([2]; HEK cells + Synuclein fibers aggregated with equimolar NS132, control = 1): 0.8792 and 0.8235 and 0.899 and 0.8879 and 0.9679 and 0.8608 and 0.7821 and 0.8196 and 0.8279 and 0.7732 and 0.9011 and 0.8063 and 0.8583 and 0.8947 and 0.7357 and 0.8112 | viability of HEK cells ([2]; αS aggregated solution with an equimolar ratio of NS132 (52% with αS alone)): 85% | intracellular αS-A53T-YFP inclusions (confocal), in words ([3]; HEK293 cells transfected with αS aggregated in the presence of NS132): significant decrease | ProteoStat intensity versus control (no fibers), in words ([3]; HEK cells + 5 μM αS aggregated with equimolar NS132): did not observe a significant difference | ProteoStat dye intensity (raw), individual experiments ([3]; HEK cells + 5 μM αS fibers aggregated with equimolar NS132, 24 h): 538 and 599 and 420 and 486 and 619 and 476 and 665 and 696 and 519 and 621 and 647 and 693

From PMC11061149, “Protein mimetic 2D FAST rescues alpha synuclein aggregation mediated early and post disease Parkinson’s phenotypes” (Nature Communications, 2024)
